Our source for the IC50 values is patent US20230081426A1, “COMPOUNDS AND METHODS FOR KRAS MODULATION AND INDICATIONS THEREFOR” (Plexxikon Inc., priority 2020, published 2023).

For assay [1], the target named is T1, G12D-mutant human KRAS (amino acid residues 1-188) (Homo sapiens, UniProt P01116, G12D).
T1 construct: G12D or G12C-mutant human KRAS (amino acid residues 1-188) with FLAG tag; made in house; host or cells: E. coli
In words: KRAS Binding Disruption Assay (AlphaScreen; biotinylated KRpep-2d analogue or RAF1-RBD), G12D. The following applies: KRAS G12D; geometric mean; read-out: KRAS GMean IC50 (uM) MUTATION: G12D. Summed up:
(§1)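 Compounds are titrated against 5-20 nM mutant KRAS and 5-20 nM of either a biotinylated KRpep-2d analogue or RAF1-RBD, incubated 1 h at 25° C. Disruption is detected as reduced Alpha signal after 1 h with donor and acceptor beads at 10 μg/mL.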
A general note: Bead proximity is the source of the signal in Alpha formats.

In assay [2] the target is T2, G12C-mutant human KRAS (amino acid residues 1-188) (Homo sapiens, UniProt P01116, G12C).
T2 construct: G12D or G12C-mutant human KRAS (amino acid residues 1-188) with FLAG tag; made in house; host or cells: E. coli
In words: KRAS Binding Disruption Assay (AlphaScreen; biotinylated KRpep-2d analogue or RAF1-RBD), G12C. The following applies: geometric mean, read-out: KRAS GMean IC50 (uM) MUTATION: G12C. Summed up:
as §1

T1 sequence (P01116 1-188 isoform P01116-2 G12D): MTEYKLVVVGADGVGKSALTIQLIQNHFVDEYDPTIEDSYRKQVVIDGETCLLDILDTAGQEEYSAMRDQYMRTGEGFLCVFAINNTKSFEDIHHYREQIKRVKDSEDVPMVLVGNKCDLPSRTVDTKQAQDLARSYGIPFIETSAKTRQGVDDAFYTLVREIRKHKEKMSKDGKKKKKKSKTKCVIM
T2 sequence (P01116 1-188 isoform P01116-2 G12C): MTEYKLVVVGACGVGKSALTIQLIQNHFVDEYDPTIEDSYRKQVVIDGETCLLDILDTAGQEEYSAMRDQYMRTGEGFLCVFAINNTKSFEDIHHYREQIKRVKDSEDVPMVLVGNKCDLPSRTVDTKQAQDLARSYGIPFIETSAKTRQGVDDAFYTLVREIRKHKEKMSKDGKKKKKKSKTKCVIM

As to `Fc1cc2[nH]cc(-c3c(F)cc4c(N5C[C@H]6CC[C@@H](C5)N6)nc(OCC56CCCN5CCC6)nc4c3F)c2cc1F` [P-0789, 4-((1R,5S)-3,8-diazabicyclo[3.2.1]octan-3-yl)-7-(5,6-difluoro-1H-indol-3-yl)-6,8-difluoro-2-((tetrahydro-1H-pyrrolizin-7a(5H)-yl)methoxy)quinazoline], the results for the IC50 in assay [1] and in assay [2] were 0.0001 to 10 µM and 10 to 100 µM, respectively.
In the case of `Cc1cccc2[nH]cc(-c3c(F)cc4c(N5C[C@H]6CC[C@@H](C5)N6)nc(OCC56CCCN5CCC6)nc4c3F)c12` [P-0790, 4-((1R,5S)-3,8-diazabicyclo[3.2.1]octan-3-yl)-6,8-difluoro-7-(4-methyl-1H-indol-3-yl)-2-((tetrahydro-1H-pyrrolizin-7a(5H)-yl)methoxy)quinazoline], the IC50 in assay [1] and in assay [2] was 0.0001 to 10 µM in each case.
On to `Oc1cc(-c2ccc3c(N4C[C@H]5CC[C@@H](C4)N5)nc(N4CCC(O)C4)nc3c2F)c2ccccc2c1` (stereo partly drawn) [P-0791, 1-(4-((1R,5S)-3,8-diazabicyclo[3.2.1]octan-3-yl)-8-fluoro-7-(3-hydroxynaphthalen-1-yl)quinazolin-2-yl)pyrrolidin-3-ol], for which the results for the IC50 in assay [1] and in assay [2] were 0.0001 to 10 µM and 100 to 1000 µM, respectively.
The like results for `CC1(O)CN(c2nc(N3C[C@H]4CC[C@@H](C3)N4)c3ccc(-c4cc(O)cc5ccccc45)c(F)c3n2)C1` [P-0792, 1-(4-((1R,5S)-3,8-diazabicyclo[3.2.1]octan-3-yl)-8-fluoro-7-(3-hydroxynaphthalen-1-yl)quinazolin-2-yl)-3-methylazetidin-3-ol] were, in that order, 0.0001 to 10 µM and 10 to 100 µM.
`NC1CN(c2nc(N3C[C@H]4CC[C@@H](C3)N4)c3ccc(-c4cc(O)cc5ccccc45)c(F)c3n2)C1` [P-0793, 4-(2-(3-aminoazetidin-1-yl)-4-((1R,5S)-3,8-diazabicyclo[3.2.1]octan-3-yl)-8-fluoroquinazolin-7-yl)naphthalen-2-ol]: the IC50 fell in the range of 0.0001 to 10 µM in assay [1] and 10 to 100 µM in assay [2].
With `CN(C)C1CN(c2nc(N3C[C@H]4CC[C@@H](C3)N4)c3ccc(-c4cc(O)cc5ccccc45)c(F)c3n2)C1` [P-0794, 4-(4-((1R,5S)-3,8-diazabicyclo[3.2.1]octan-3-yl)-2-(3-(dimethylamino)azetidin-1-yl)-8-fluoroquinazolin-7-yl)naphthalen-2-ol], the values for the IC50 in assay [1] and in assay [2] were 0.0001 to 10 µM and 10 to 100 µM, respectively.
With `Cc1cccc2c(-c3c(F)cc4c(N5C[C@H]6CC[C@@H](C5)N6)nc(OC[C@@H]5CCCN5C)nc4c3F)c[nH]c12` [P-0795, 4-((1R,5S)-3,8-diazabicyclo[3.2.1]octan-3-yl)-6,8-difluoro-7-(7-methyl-1H-indol-3-yl)-2-(((S)-1-methylpyrrolidin-2-yl)methoxy)quinazoline], the IC50 in assay [1] and in assay [2] was 10 to 100 µM in each case.
For the molecule `CN1CCC[C@H]1COc1nc(N2C[C@H]3CC[C@@H](C2)N3)c2cc(F)c(-c3c[nH]c4cc(Cl)ccc34)c(F)c2n1` [P-0796, 4-((1R,5S)-3,8-diazabicyclo[3.2.1]octan-3-yl)-7-(6-chloro-1H-indol-3-yl)-6,8-difluoro-2-(((S)-1-methylpyrrolidin-2-yl)methoxy)quinazoline], the values for the IC50 in assay [1] and in assay [2] were 0.0001 to 10 µM and 100 to 1000 µM, respectively.
Take `COc1cccc2[nH]cc(-c3c(F)cc4c(N5C[C@H]6CC[C@@H](C5)N6)nc(OC[C@@H]5CCCN5C)nc4c3F)c12` [P-0797, 4-((1R,5S)-3,8-diazabicyclo[3.2.1]octan-3-yl)-6,8-difluoro-7-(4-methoxy-1H-indol-3-yl)-2-(((S)-1-methylpyrrolidin-2-yl)methoxy)quinazoline]: the IC50 in assay [1] was in the range of 0.0001 to 10 µM; in assay [2] it was 10 to 100 µM.
`CN1CCC[C@H]1COc1nc(N2C[C@H]3CC[C@@H](C2)N3)c2cc(F)c(-c3c[nH]c4cc(C#N)ccc34)c(F)c2n1` [P-0798, 3-(4-((1R,5S)-3,8-diazabicyclo[3.2.1]octan-3-yl)-6,8-difluoro-2-(((S)-1-methylpyrrolidin-2-yl)methoxy)quinazolin-7-yl)-1H-indole-6-carbonitrile]: the IC50 in assay [1] was 10 to 100 µM; in assay [2], 100 to 1000 µM.

By IC50 is commonly meant the concentration that gives 50% inhibition.
